Data taken from US11795135B2, “Prostacyclin compounds, compositions and methods of use thereof” (Insmed Incorporated, priority 2013, dated 2023).
Entries after “also recorded” stand apart in the source; their conditions may differ. Each block holds one compound with its values, some of them ahead of it.

Columns and labels:
[1] = tested on: Cough Reflex in Guinea Pigs; assay: Cough reflex in guinea pigs (whole body plethysmograph); type: in vivo, guinea pig
Experimental: T623 has the following components:
Aerosols were generated with an Ultra-Neb Pro nebulizer (nebulizer output 0.36 mL/min.) that was mixed with inspired air delivered at a rate of 2 L/min. The PBS or drugs were delivered for 10 min. and the number of coughs recorded during and for 20 min. after the delivery. Coughs were detected by visual observations, plethysmograph recordings and cough sounds.

[2] = dog, in vivo
Experimental: Twelve beagle dogs of either sex were randomly assigned to different inhaled doses of treprostinil in PBS or the compound of Formula (A) wherein
Formulations were nebulized with an Aeroneb nebulizer (MMAD: 2.5-4 μm) delivered into a 500 ml expansion chamber. Formulations were nebulized for 2 min at ventilator settings of 90 ml/breath, 15 breaths/min (delivered volume=2.7 L) and collected on a filter. Drug amount (m) on the filter was measured by HPLC to calculate the concentration of drug delivered through the ventilator circuit (μg/L).
Dosimetry was performed in propofol-anesthetized dogs in which nebulized drugs were introduced into a mixing chamber interposed on the inspiratory limb of a canine respirator. Technical trials were performed before each experiment to measure the concentration of drug (μg/L) delivered for each breath. The inhaled drug dose (μ/kg) was calculated using the formula: Inhaled Drug Dose (μg/kg)=Drug Conc. (μg/L)×Minute Ventilation (L/min.)×Time (min.)/Body Weight (kg). […] Clinical signs were monitored over this 72 hr. period.
Dosimetry was performed in propofol-anesthetized, artificially ventilated dogs in which nebulized drugs were introduced into a mixing chamber interposed on the inspiratory limb of the respirator. […] Clinical signs (cough, rapid shallow breathing, emesis and pale gums) were also monitored.

[3] = molecular target: T1, EP2 prostanoid receptor (Homo sapiens, UniProt P43116); assay: GloSensor cAMP assay in CHO-K1 cells co-transfected with the EP2 receptor; type: cell-based; conditions: for Max cAMP level (Fold): CHO-K1 cells
T1 construct: host or cells: CHO-K1
T1 sequence (P43116 whole entry): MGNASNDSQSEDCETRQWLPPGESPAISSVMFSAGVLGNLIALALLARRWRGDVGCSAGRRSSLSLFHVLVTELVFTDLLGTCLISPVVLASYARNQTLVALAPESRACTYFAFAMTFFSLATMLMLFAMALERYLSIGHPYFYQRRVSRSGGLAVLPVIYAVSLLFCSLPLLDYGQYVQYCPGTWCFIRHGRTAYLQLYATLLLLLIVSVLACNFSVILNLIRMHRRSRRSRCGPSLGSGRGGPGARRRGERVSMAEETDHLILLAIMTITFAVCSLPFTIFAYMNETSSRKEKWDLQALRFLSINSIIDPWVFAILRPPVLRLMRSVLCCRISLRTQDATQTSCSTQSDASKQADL
Description: cAMP is a second messenger involved in signal transduction of G-protein coupled receptors (GPCRs) acting through Gα-s and Gα-i proteins. Because the treprostinil receptor is a GPCR, the assay provides an indication of whether the respective prostacyclin compound (or metabolite thereof) binds its receptor and activates the GPCR cell signaling cascade. The GloSensorTM assay harnesses a genetically modified form of firefly luciferase into which a cAMP-binding protein moiety has been inserted. Upon binding of cAMP, a conformational change is induced leading to increased light output. The EP2 prostanoid receptor was co-transfected with the GloSensorTM plasmid (Promega) into CHO-K1 cells as follows. CHO-K1 cells were harvested when the monoloayer was at 50-90% confluence. First, cells were washed with 5 mL PBS. […] The media was aspirated, and the cell pellet was resuspended in 10 mL of growth media. Cell number was determined using a hemacytometer. Each well of a culture treated 96 well flat bottom plate (Costar, Cat #: 3917) was seeded with 1×10^4 cells per 100 μL antibiotic-free growth media. […] For small scale transfections of up to 20 wells, the pGLoSensor-22F cAMP plasmid (Promega, Cat #: E2301) (2 μg): (EP2) (10 ng) (Origene, Cat #: SC126558):pGEM-3Zf(+) (10 ng) (Promega, Cat #: P2271) ratio was diluted to a final concentration of 12.6 ng/μL (total plasmid) in Opti-MEM I reduced-serum medium (Life Technologies, Cat #: 1985062). Next, 6 μL of FuGENE HD transfection reagent (Promega, Cat #: E2311) was added to 160 μL of diluted plasmid and mixed carefully by gentle pipetting. The complex was incubated at room temperature for 0 to 10 minutes, and then 8 μL of the complex was added per well of a 96 well white assay plate (Costar, Cat #: 3917) and gently mixed without disturbing the cell monolayer. […] Following incubation, cells were treated and analyzed. For larger scale transfections, the aforementioned steps were scaled up accordingly, and cells were frozen following the last incubation. In order to prepare frozen transfected CHO-K1 cells, the media was aspirated from culture flasks and cells were rinsed with 5 mL PBS. […] Cell number was determined using a hemacytometer. The media was aspirated, and the cell pellet was resuspended in freezing media (Millipore, cat #: S-002-5F) at 2.5×10^6 cells/vial. Transfected cells were incubated overnight at -80° C. before transfer to liquid nitrogen for long term storage. […] In preparation for cAMP measurement, the cells were equilibrated with the GloSensor cAMP reagent prior to treatment. For equilibration, the medium was carefully removed from the individual well. Next, 100 μL of equilibration medium ([…] of Glosensor Reagent stock solution (Promega, Cat #: E291), 10% FBS (Hyclone, Cat #: SH30071.03) and 88% CO2 independent medium (Life Technologies, Cat #: 18045088)) was added per well of the 96-well plate, and added to the side of each well. The plate was then incubated for 2 hours at room temperature. A first pre-read measurement was taken using a microplate reader (MicroLumat Plus). Plates were incubated for an additional 10 minutes at room temperature, followed by a second pre-read measurement. […] Following treatment, each plate was read every 5 minutes for the duration of the assay using a microplate reader (MicroLumat Plus). In order to determine the fold change in cAMP relative to the control, the transfection efficiency was first determined by dividing the second pre-read measurement by the average of the corresponding pre-read measurements. Next, the normalized relative light units (RLUs) of the samples were determined by dividing the plate read measurement by the transfection efficiency. The fold change in cAMP relative to the control was then determined by dividing the normalized RLU of the samples by the normalized RLU of the control. The cAMP assay was validated using free treprostinil. […] Luminescence was then measured at room temperature. […]

[4] = Treprostinil pharmacokinetics in anaesthetised, ventilated rats after nebulized dosing; type: in vivo, rat; conditions: nebulized TRE solution
Experimental: Male Sprague Dawley rats were anaesthetised and prepared with endotracheal tube for ventilation. The right femoral vein was cannulated to facilitate blood collections. Terminal lung samples were taken for analysis only 6 hours after dosing. […] Systemic blood pressure (mSAP), heart rate (HR), and arterial oxygen saturation (SaO2). Physiologic parameters were measured during normoxia (fraction of inspired oxygen [FrO2]=0.21, SaO2≈90%) and for 2 to 3 hours during hypoxia (FrO2=0.10, SaO2≈50%).

[5] = tested on: CHO-K1 cells; assay: CHO-K1 cell proliferation assay (Presto Blue); conditions: unformulated alkyl esters, 48 hour incubation
Experimental: CHO-K1 cells were harvested when the cell monolayer was 50-90% confluent (use passage 4-11). Media was aspirated out of the flask, and cells were rinsed with 2 mL of F12 media. Next, 1 mL of pre-warmed (37° C.) 0.25% trypsin-EDTA (Life Technologies, Cat #: 25300054) was added, and cells were dislodged from the flask by tapping it on the side. Complete growth media (F12 (Life Technologies, Cat #: 31765092)+10% FBS (Hyclone, Cat #: SH30071.03)+1× Pen-Strep (Life Technologies, cat #15140-122) was then added at a volume of 10 mL. Cells were centrifuged at 250×g for 5 minutes at room temperature, and the media was aspirated. The cell pellet was resuspended in 10 mL complete growth media. Cell number was determined using a hemacytometer. Cells were then seeded at 2000 cells per well of a 96-well plate in 100 μL of complete growth media. The plate was incubated overnight at 37° C. and 5% CO2 in a water-jacketed incubator.
The next day, 80 μL of fresh complete media was added to each well, and CHO-K1 cells were challenged with treprostinil compound and composition treatments. The working solutions were prepared at 10× concentration, and following 2 fold serial dilutions, 20 μL aliquots were added per well to arrive at a final 1× concentration. Following a 48 hour incubation at 37° C. and 5% CO2 in a water-jacketed incubator, the inhibitory effect on cell proliferation was determined. Plates were analyzed using 20 μL of Presto Blue reagent (Life Technologies, cat #: A13262) per well. The reagent was mixed, and plates were incubated for 1 hour at 37° C. and 5% CO2 in a water-jacketed incubator. Plates were read using either a CytoFluor Series 4000 (PerSeptive BioSystems) or Synergy Neo microplate reader (BioTek) with emission λ: 590 nm and excitation λ: 560 nm.
at concentrations ranging from 0.55 μM to 125 μM. Following a 48 hour incubation period, the inhibitory effect of the treprostinil derivative compositions on cell proliferation was determined.
C2, C3, C4, C5, C6, C8, C10 or Cu straight chain alkyl, at dosages ranging from 0.098 μM to 25 μM. Following a 48 hour incubation period, the inhibitory effect on cell proliferation was determined.
Following a 72 hour incubation period, the inhibitory effect on cell proliferation was determined. Following a 48 hour incubation period, the inhibitory effect on cell proliferation was determined.
Similarly, CHO-K1 cells were challenged with the treprostinil compositions T612 (R2=C2), T613 (R2=C8) at concentrations ranging from 1.41 μM to 180 μM.

[6] = Treprostinil alkyl ester conversion to treprostinil in rat lung tissue homogenate; type: in vitro ADME; conditions: 37° C., 200 nM, 4 hours, 10 mg/mL of protein
Experimental: (§1) Treprostinil alkyl ester conversion to treprostinil was also measured in the presence of rat, dog and monkey lung tissue homogenate at 37° C. Here, data were calculated based on fit of exponential increase to the maximum (experiments performed in duplicate). The results of this study are provided below in Table 2A and FIG. 37. […] Both FIG. 37 experiments (left and right graphs) were performed in duplicate and the lines represent nonlinear exponential regression assuming 1 phase decay.

[7] = tested on: Rat alveolar NR8383 cells; assay: NR8383 cell proliferation assay (Presto Blue); type: cell-based; conditions: unformulated alkyl esters, 72 hour incubation
Experimental: Rat alveolar NR8383 cells were harvested when the monolayer was 50-90% confluent (use passage 5-11). Because the NR8383 cells include both adherent and non-adherent cells, media was transferred to a 50 mL Falcon tube. To obtain the cells remaining in the flask, 2 mL of plain media was added, and the remaining cells were scraped out of the 75 cm^2 flask with a cell scraper and added to the 50 mL tube. […] SH30071.03)+1×Pen-Strep (Life Technologies, cat #: 15410-122)). Cell number was determined using a hemacytometer. […] Measurements and calculations were made as described above for the CHO-K1 cells.

[8] = Treprostinil alkyl ester conversion to treprostinil in monkey lung tissue homogenate; type: in vitro ADME; conditions: 37° C., 200 nM, 4 hours, 10 mg/mL of protein
Experimental: as §1

[9] = Treprostinil alkyl ester conversion to treprostinil in dog lung tissue homogenate; type: in vitro ADME; conditions: 37° C., 200 nM, 4 hours, 10 mg/mL of protein
Experimental: as §1

[10] = Tolerability and pharmacokinetics in rats, T748 inhaled for 14 consecutive days; type: in vivo, rat; conditions: T748, 0.6-18 μg/kg
Experimental: Body weights were recorded daily and organ weights (lungs, heart, liver) were measured 24 hr. after the last drug dose.

[11] = nebulized concentration of 30 μg/mL

exposure concentration consistently evoking cough ([1]; 1-300 μg/ml tested): ≥ 30 µg/mL
cough bouts [1, 11]: 1-4
cough response [1, 11]: consistent cough in 7 of 7 guinea pigs
total number of coughs ([1]; nebulized concentration of 30 μg/mL, 10 min delivery + 20 min): 36±9 coughs
period over which plasma levels of treprostinil were sustained [2]: disappeared within a few hours
cAMP levels sustained for ([3]; 10 μM, composition, FIG. 3A): not exhibited
Max cAMP level (Fold) ([3]; Effect of nebulization (FIG. 6), head prints (5 μM)): ~15 Fold
EC50 ([3]; cAMP response in CHO-K1 cells, 4.5 hr incubation): 0.2 µM
Max cAMP level (Fold) ([3]; compositions shown in FIG. 3, 8 hours time course): ~16 Fold
Max cAMP level (Fold) ([3]; compositions shown in FIG. 4, 5 μM, 8 hours time course): ~14 Fold
time beyond which measurable levels of TRE were not seen in the blood plasma [4]: ≤ 4 h
SMILES: CCCCC[C@H](O)CC[C@@H]1[C@H]2Cc3cccc(OCC(=O)O)c3C[C@H]2C[C@H]1O [Treprostinil, (1R,2R,3aS,9aS)-[[2,3,3a,4,9,9α-hexahydro-2-hydroxy-1-[(3S)-3-hydroxyoctyl]-1H-benz[f]inden-5-yl]oxy]acetic acid]

Rate of treprostinil alkyl ester conversion [6]: 1.1 nmOL/h * g of protein
Rate of treprostinil alkyl ester conversion [8]: 0.6 nmOL/h * g of protein
Rate of treprostinil alkyl ester conversion [9]: 2.2 nmOL/h * g of protein
SMILES: CCCCCCCCCCCCOC(=O)COc1cccc2c1C[C@H]1C[C@@H](O)[C@H](CC[C@@H](O)CCCCC)[C@H]1C2 [Compound C12-TR, dodecyl-treprostinil]
Effect on cell proliferation, CHO-K1 Cells (0.195 μM-25 μM) [5]: No detectable cell inhibition
Effect on cell proliferation, NR8383 Cells (0.195 μM-25 μM) [7]: No detectable cell inhibition

Rate of treprostinil alkyl ester conversion [6]: 32.5 nmOL/h * g of protein
Rate of treprostinil alkyl ester conversion [8]: 17.3 nmOL/h * g of protein
Rate of treprostinil alkyl ester conversion [9]: 49.8 nmOL/h * g of protein
SMILES: CCCCCCCCOC(=O)COc1cccc2c1C[C@H]1C[C@@H](O)[C@H](CC[C@@H](O)CCCCC)[C@H]1C2 [Compound C8-TR, treprostinil octyl ester]
Effect on cell proliferation, CHO-K1 Cells (0.195 μM-25 μM) [5]: showed inhibition of cell proliferation
Effect on cell proliferation, NR8383 Cells (0.195 μM-25 μM) [7]: showed some inhibition of cell proliferation

SMILES: CCCCCCCCCCCCCCCCOC(=O)COc1cccc2c1C[C@H]1C[C@@H](O)[C@H](CC[C@@H](O)CCCCC)[C@H]1C2 [Compound C16-TR, hexadecyl-treprostinil]
tolerability, body weights and organ weights [10]: no tolerability issues or significant changes (relative to PBS) in body weights and organ weights; also recorded: well tolerated with no evidence of body weight and organ weight change
ranking of activity of the treprostinil compounds ([3]; kinetic profile, 10 μM and 5 μM, FIG. 21): C12-TR>C14-TR>5-nonanyl-TR>C16-TR
